Measured values from patent publication US20030232860A1, “Medicine comprising dicyanopyridine derivative” (priority 2000, published 2003).
Counter-ions that a name gives are not always drawn.

Columns and labels:
[1] = test system: rat's removed bladder specimen; assay: Inhibition of the contraction of rat's removed bladder specimen (15 mM K+-induced contraction, organ bath); details: SD male rat bladder strips, dose giving 50% inhibition of contraction area
From the text: Since the inhibitory action is blocked by a known maxi-K channel blocker charybdotoxin or iberiotoxin, it is confirmed that the effect of the compounds of the invention is based on the maxi-K channel opening effect. Thus, the pharmacological effect of the compounds of the invention was confirmed according to the following method.
<Inhibitory Effect in Construction of the Rat's Removed Bladder Specimen>
In this experiment, SD-family male rats (9-13 weeks of age) were used. The rats were killed by bleeding under ether anesthesia, and the bladders were removed. The removed bladders were immediately washed in a Kiebs-Henseleit solution (NaCl 118.4, KCl 4.7, KH2PO4 1.2, MgSO4 1.2, CaCl2 2.5, NaHCO3 25.0, glucose 11.1 [mM], aeration with 95% O2/5% CO2 mixed gas) kept at 37° C., and prepared into rectangular specimens of about 10 mm long and about 2 mm width on a Petri dish filled with the Klebs-Henseleit solution. The respective specimens were ligated at the both ends with a cotton string via a wire hook, and the one end was fixed to an FD pick-up and the other hung down vertically in an organ bath filled with the Klebs-Henseleit solution. After completion of the operation, 1.0 g of static tensile stress was given to the respective slices, which were then allowed to stand for 1.5-2 hours to stabilize. Then, a KCl solution was added to the organ bath so that the final K^+ ion concentration become 15 mM to induce the contraction. Thereafter, the specimens were further allowed to stand for about 1-2 hours to stabilize, and the test was started. The contraction of the smooth muscle was measured isometrically through the FD pick-up, and the output signal was amplified through a strain stress amplifier to continuously record a chart on a pen recorder. At the same time, the respective contraction wave forms to be analyzed were recorded on a personal computer as magnetic data through an analogue/digital signal converter, and the under-area of the contraction was calculated by analytical software. The contraction 5 minutes immediately after the start of the test was regarded as the value before administration of the drug to be tested (100% reference value). The drug to be tested was added into the bath at intervals of 30 minutes, and the contraction for 5 minutes, respectively 25 minutes after the administration, was analyzed. The drug to be tested was administered at a common ratio of 3 or 10 accumulatively. The effect of the drug to be tested was represented by the dose by which 50% inhibition was attained to the value before the administration (100% reference value). Additionally, the wave form of contraction at the highest dose of the drug was recorded, and then a maxi-K channel selective blocker, charybdotoxin or iberiotoxin, was administered so that the final concentration in the organ bath became 100 nM. Thus, the effect of the drug was observed whether it was blocked or not.

[2] = test system: rhythmic bladder contraction in rats under urethane anesthesia; assay: Rhythmic contraction of the bladder in rats under urethane anesthesia; assay type: in vivo, rat; details: urethane-anesthetized SD female rats, i.d.; for inhibition in vivo at 10 mg/kg: Rattus norvegicus, intraduodenal, up to 2 hours, read-out: Inhibition of frequency of the bladder contraction max % inhibition; for Frequency of Bladder Contraction Retention time of 50% Inhibition: 10 mg/kg
From the text: <Effect on the Rhythmic Contraction of the Bladder in Rats Under Urethane Anesthesia>
SD-Family female rats (about 300 g) were used. A catheter was inserted into the bladder through the external urethral orifice under urethane anesthesia and spontaneous breathing. The other end was connected to a pressure transducer and an infusion pump through a three-way cock. On the other hand, another catheter for measuring blood pressure was inserted into the right common carotid artery. Physiological saline warmed at about 38° C. was injected in the bladder at a rate of 4.2 ml/hr until rhythmical bladder contraction was induced. Change of the internal pressure in the bladder was continuously recorded on a recorder. After the rhythmical bladder contraction was stabilized, a test compound suspended in 0.5% methylcellulose aqueous solution was administered through a catheter which had been attached to the duodenum. Thus, frequency of the bladder contraction (every 10 minutes), force of bladder contraction and average blood pressure were observed as evaluation items up to 2 hours after administration of the test compound.

[3] = test system: rhythmic vesical contraction in an anesthetized rat; details: cited from earlier work
[4] = test system: murine removed bladder smooth muscle; details: cited from earlier work

SMILES	IC50 [1]	melting point	inhibition in vivo at 10 mg/kg [2]	Frequency of Bladder Contraction Retention time of 50% Inhibition [2]	Rhythmic vesical contraction [3]	Relaxant effect for the murine removed bladder smooth muscle [4]
COc1nc(N)c(C#N)c(-c2ccccc2F)c1C#N [Example 3, 2-amino-6-methoxy-4-(2-fluorophenyl)pyridine-3,5-dicarbonitril]	230 nM	240 to 241 °C	97%	39 min	–	–
N#Cc1c(N)nc(OCC(F)F)c(C#N)c1-c1ccccc1F [Example 12, 2-amino-6-(2,2-difluoroethoxy)-4-(2-fluorophenyl)pyridine-3,5-dicarbonitrile]	410 nM	219 to 220 °C	77%	31 min	–	–
N#Cc1c(N)nc(OCCOC(=O)[C@@H](N)Cc2ccccc2)c(C#N)c1-c1ccccc1 [Example 15, 2-[(2-amino-3,5-dicyano-4-phenylpyridin-6-yl)oxy]ethyl (S)-2-amino-3-phenylpropanoate monohydrochloride monohydrate]	2800 nM	–	89%	36 min	–	–
COc1nc(N)c(C#N)c(-c2ccc(N)cc2)c1C#N.Cl.O [Example 20, 2-amino-(4-aminophenyl)-6-methoxypyridine-3,5-dicarbonitrile monohydrochloride monohydrate]	110 nM	–	86%	40 min	–	–
COc1nc(N)c(C#N)c(CC2CCCCC2)c1C#N [Example 150, 2-amino-4-cyclohexylmethyl-6-methoxypyridine-3,5-dicarbonitrile]	1300 nM	139 to 140 °C	81%	30 min	–	–
Cc1c(-c2ccccc2F)[nH]c(N)c1C#N [NS-8]	1100 nM	–	–	–	makes rhythmic vesical contraction subsided	exhibits a relaxant effect

The next lines start with results.

IC50 [1]	melting point	SMILES	inhibition in vivo at 10 mg/kg [2]	Frequency of Bladder Contraction Retention time of 50% Inhibition [2]	Rhythmic vesical contraction [3]	Relaxant effect for the murine removed bladder smooth muscle [4]
1300 nM	134 to 135 °C	COc1nc(N)c(C#N)c(C2CCCCO2)c1C#N (stereo not shown) [Example 6, 2-amino-4-(2-tetrahydropyranyl)-6-methoxypyridine-3,5-dicarbonitrile]	65%	39 min	–	–
410 nM	205 to 206 °C	C#CCOc1nc(N)c(C#N)c(-c2ccccc2F)c1C#N [Example 11, 2-amino-4-(2-fluorophenyl)-6-(prop-2-yn-1-yloxy)pyridine-3,5-dicarbonitrile]	87%	27 min	–	–
1400 nM	192 to 193 °C	COc1nc(NC(C)=O)c(C#N)c(-c2ccccc2F)c1C#N [Example 58, N-[3,5-dicyano-4-(2-fluorophenyl)-6-methoxypyridin-2-yl]acetamide]	93%	46 min	–	–
1000 nM	215 to 216 °C	COc1nc(N)c(C#N)c(Cc2ccccc2)c1C#N [Example 151, 2-amino-4-benzyl-6-methoxypyridine-3,5-dicarbonitrile]	71%	26 min	–	–
